# Assay results taken from patent US7939536B2, “Pyrimidinylisoxazole derivatives” (Aska Pharmaceutical Co., Ltd., priority 2004, dated 2011).
# Assay: Measurement of the compounds' metabolic rate (human liver S9)
# Assay type: in vitro ADME
# Conditions: human liver S9 0.5 mg protein/mL, NADPH generating system, 1 μmol/L test compound, 37° C. for 5 minutes, LC/MS/MS
# Description: (2) Measurement of the Compounds' Metabolic Rate:
# Each test compound was added to potassium phosphate buffer (50 mmol/L, pH7.4) containing NADPH generating system (comprising 3.3 mmol/L MgCl2, 3.3 mmol/L glucose 6-phosphate, 1.3 mmol/L β-NADP^+ and 0.4 unit/mL glucose 6-phosphate dehydrogenase) (in which occasion the final concentration was rendered 1 μmol/L) and incubated at 37° C. for 2 minutes. After the incubation, a suspension of human liver S9(the supernatant fraction obtained by centrifuging comminuted human liver cell fluid at 9000×g) in potassium phosphate buffer was added to the system, to the final concentration of 0.5 mg protein/mL. This reaction mixture was incubated at 37° C. for 5 minutes, and to which 4 volume times the reaction mixture of acetonitrile was added, mixed, cooled with ice and centrifuged (2000×g, 10 minutes). A part of the supernatant was taken and analyzed by LC/MS/MS, to determine the remaining rate of unchanged substance in the reaction mixture. The results are shown in the following Table A, concurrently with the measured results of TNF-α production inhibition action in (1) above.
row,Metabolic rate (remaining rate of unchanged substance: %) [%],Structure (SMILES)
1,21.2,"Cc1cccc(-c2noc(NC(=O)Cc3ccccc3Cl)c2-c2ccncn2)c1 [Example 201, 5-[(2-Chlorophenyl)acetylamino]-3-(3-methylphenyl)-4-(4-pyrimidinyl)isoxazole]"
2,43.6,"Cc1cccc(-c2noc(NC(=O)Cc3ccccc3Br)c2-c2ccncn2)c1 [Example 202, 5-[(2-Bromophenyl)acetylamino]-3-(3-methylphenyl)-4-(4-pyrimidinyl)isoxazole]"
3,59.9,"Cc1cccc(-c2noc(NC(=O)Cc3ccccc3C)c2-c2ccncn2)c1 [Example 214, 3-(3-Methylphenyl)-5-[(2-methylphenyl)acetylamino]-4-(4-pyrimidinyl)isoxazole]"
4,38.5,"Cc1cccc(CC(=O)Nc2onc(-c3cccc(C)c3)c2-c2ccncn2)c1 [Example 215, 3-(3-Methylphenyl)-5-[(3-methylphenyl)acetylamino]-4-(4-pyrimidinyl)isoxazole]"

# Further lines, the compound ahead of its results:
row,Structure (SMILES),Metabolic rate (remaining rate of unchanged substance: %) [%]
1,"O=C(Cc1ccccc1Cl)Nc1onc(-c2ccc(F)cc2)c1-c1ccncn1 [Example 5, 5-[(2-chlorophenyl)acetylamino]-3-(4-fluorophenyl)-4-(4-pyrimidinyl)isoxazole]",5.8
2,"O=C(Cc1c(F)cccc1Cl)Nc1onc(-c2ccc(F)cc2)c1-c1ccncn1 [Example 13, 5-[(2-Chloro-6-fluorophenyl)acetylamino]-3-(4-fluorophenyl)-4-(4-pyrimidinyl)isoxazole]",16.1
3,"O=C(Cc1ccccc1Cl)Nc1onc(-c2ccc(Cl)cc2)c1-c1ccncn1 [Example 61, 3-(4-Chlorophenyl)-5-[(2-chlorophenyl)acetylamino]-4-(4-pyrimidinyl)-isoxazole]",53.1
4,"O=C(Cc1ccccc1Cl)Nc1onc(-c2ccc(F)cc2F)c1-c1ccncn1 [Example 105, 5-[(2-Chlorophenyl)acetylamino]-3-(2,4-difluorophenyl)-4-(4-pyrimidinyl)isoxazole]",20.4
5,"Cc1cccc(CC(=O)Nc2onc(-c3ccc(F)cc3F)c2-c2ccncn2)c1 [Example 121, 3-(2,4-Difluorophenyl)-5-[(3-methylphenyl)acetylamino]-4-(4-pyrimidinyl)isoxazole]",46.6
6,"COc1ccc(-c2noc(NC(=O)Cc3ccccc3Cl)c2-c2ccncn2)c(F)c1 [Example 174, 5-[(2-Chlorophenyl)acetylamino]-3-(2-fluoro-4-methoxyphenyl)-4-(4-pyrimidinyl)isoxazole]",24.1
7,"Cc1ccc(F)c(-c2noc(NC(=O)Cc3ccccc3)c2-c2ccncn2)c1 [Example 224, 3-(2-Fluoro-5-methylphenyl)-5-(phenylacetylamino)-4-(4-pyrimidinyl)isoxazole]",39.8
8,"COc1cccc(CC(=O)Nc2onc(-c3ccc(F)c(C)c3)c2-c2ccncn2)c1 [Example 253, 5-[(3-Methoxyphenyl)acetylamino]-3-(3-methyl-4-fluorophenyl)-4-(4-pyrimidinyl)isoxazole]",33.1
9,"Cc1cc(-c2noc(NC(=O)Cc3ccccc3C)c2-c2ccncn2)ccc1F [Example 257, 3-(3-Methyl-4-fluorophenyl)-5-[(2-methylphenyl)acetylamino]-4-(4-pyrimidinyl)isoxazole]",52.6
